For this assay, the system named is P388 leukemia ip, CD2F1 mice, survival T/C. Nature of the assay: NCI In Vivo Anticancer Drug Screen. Data for tumor model P388 Leukemia (intraperitoneal) in CD2F1 (CDF1) mice. Conditions: endpoint: median survival time, higher = longer survival. In short, it runs like this: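 Mice carrying the transplanted tumor received test compound or vehicle. Survival was recorded in each group, and the value is the treated-group measurement divided by that of the vehicle-treated control group.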

The mark [1] stands for this setting: dose: 50.0 mg/kg/injection, schedule: Q01DX005 (ip), vehicle: Klucel (hydroxypropylcellulose) (HPC).
Where [2] appears, read: dose: 100.0 mg/kg/injection, schedule: Q01DX005 (ip), vehicle: Klucel (hydroxypropylcellulose) (HPC).
The mark [3] stands for this setting: dose: 200.0 mg/kg/injection, schedule: Q01DX005 (ip), vehicle: Klucel (hydroxypropylcellulose) (HPC).
The mark [4] stands for this setting: dose: 50.0 mg/kg/injection, schedule: Q01DX005 (ip), vehicle: saline with Tween-80.
The mark [5] stands for this setting: dose: 50.0 mg/kg/injection, schedule: Q01DX009 (ip), vehicle: saline with Tween-80.
Where [6] appears, read: dose: 100.0 mg/kg/injection, schedule: Q01DX005 (ip), vehicle: saline with Tween-80.
Setting [7] is: dose: 100.0 mg/kg/injection, schedule: Q01DX009 (ip), vehicle: saline with Tween-80.
The mark [8] stands for this setting: dose: 200.0 mg/kg/injection, schedule: Q01DX005 (ip), vehicle: saline with Tween-80.
Where [9] appears, read: dose: 12.5 mg/kg/injection, schedule: Q01DX009 (ip), vehicle: saline.
Setting [10] is: dose: 25.0 mg/kg/injection, schedule: Q01DX009 (ip), vehicle: saline.
[11] abbreviates: dose: 100.0 mg/kg/injection, schedule: Q04DX003 (ip), vehicle: saline.
Where [12] appears, read: dose: 60.0 mg/kg/injection, schedule: Q01DX005 (ip), vehicle: saline with Tween-80.
Where [13] appears, read: dose: 120.0 mg/kg/injection, schedule: Q01DX005 (ip), vehicle: saline with Tween-80.
Setting [14] is: dose: 240.0 mg/kg/injection, schedule: Q01DX005 (ip), vehicle: saline with Tween-80.

“And” between values parts separate entries of the source, which are not always exact repeats. Equal entries are not always repeated. Inconclusive results and toxic doses are left out.

`O=C1OCCSCCOCCSCCOC(=O)c2cccc1n2`: the T/C is 96 % of control (dose: 100.0 mg/kg/injection, schedule: Q01DX001 (ip), vehicle: Klucel (hydroxypropylcellulose) (HPC)); 93 % of control (dose: 200.0 mg/kg/injection, schedule: Q01DX001 (ip), vehicle: Klucel (hydroxypropylcellulose) (HPC)); 102 % of control (dose: 400.0 mg/kg/injection, schedule: Q01DX001 (ip), vehicle: Klucel (hydroxypropylcellulose) (HPC)).
Turning to `O=C(NCCCCNC(=O)C12CC3CC(CC(C3)C1)C2)C12CC3CC(CC(C3)C1)C2`, the T/C was 90 % of control under setting [1], 90 % of control under setting [2] and 86 % of control under setting [3].
`C1=C\CCCCCCCC/1`: the T/C is 100 % of control (dose: 1.56 mg/kg/injection, schedule: Q01DX009 (ip), vehicle: saline with Tween-80); 91 % of control (dose: 3.13 mg/kg/injection, schedule: Q01DX009 (ip), vehicle: saline with Tween-80); 100 % of control (dose: 6.25 mg/kg/injection, schedule: Q01DX009 (ip), vehicle: saline with Tween-80); 109 % of control (dose: 6.25 mg/kg/injection, schedule: Q04DX003 (ip), vehicle: saline); 100 % of control (dose: 12.5 mg/kg/injection, schedule: Q04DX003 (ip), vehicle: saline); 104 % of control (dose: 25.0 mg/kg/injection, schedule: Q04DX003 (ip), vehicle: saline).
For the compound `CCOC(=O)N1C(C)C2C=CC1C(S(=O)(=O)c1ccccc1)C2` (centres undefined), the T/C is 97 % of control under setting [1], 102 % of control under setting [2] and 97 % of control under setting [3].
Consider `CS(=O)(=O)OCCBr`, for which the T/C is 105 % of control (dose: 12.5 mg/kg/injection, schedule: Q01DX009 (ip), vehicle: saline with Tween-80); 108 % of control (dose: 25.0 mg/kg/injection, schedule: Q01DX005 (ip), vehicle: saline with Tween-80); 105 % of control (dose: 25.0 mg/kg/injection, schedule: Q01DX009 (ip), vehicle: saline with Tween-80); 110 % of control under setting [4]; 114 % of control under setting [5]; 103 % of control (dose: 100.0 mg/kg/injection, schedule: Q01DX001 (ip), vehicle: saline with Tween-80). Further, the T/C by setting is: under setting [6], 106 % of control; under setting [7], 116 % of control.
As for `O=NN(CCF)C(=O)NC1CCCCC1`, the T/C was 209 % of control (dose: 16.5 mg/kg/injection, schedule: Q04DX003 (ip), vehicle: saline with Tween-80) and 225 % of control (dose: 25.0 mg/kg/injection, schedule: Q04DX003 (ip), vehicle: saline with Tween-80).
In the case of `O=C1NC(=O)c2cc3ccccc3cc21`, the T/C is 87 % of control under setting [4], 87 % of control under setting [6] and 91 % of control under setting [8].
`CCOC(=O)N1CCN(C(=O)c2nc3ccc(Cl)cc3[nH]2)CC1`: the T/C was 108 % of control under setting [1], 87 % of control under setting [2] and 93 % of control under setting [3].
Turning to `CN(C)c1ccc(C(=O)C2CCCC(C)(C)C2)cc1` (centres undefined), the T/C runs as follows: (dose: 100.0 mg/kg/injection, schedule: Q04DX003 (ip), vehicle: Klucel (hydroxypropylcellulose) (HPC)) 98 % of control; (dose: 200.0 mg/kg/injection, schedule: Q04DX003 (ip), vehicle: Klucel (hydroxypropylcellulose) (HPC)) 99 % of control; (dose: 400.0 mg/kg/injection, schedule: Q04DX003 (ip), vehicle: Klucel (hydroxypropylcellulose) (HPC)) 91 % of control.
Take `CCCCNC(C)(C)C(SSSC(c1ccco1)C(C)(C)NCCCC)c1ccco1` (centres undefined): the T/C was 109 % of control under setting [9]; 113 % of control under setting [10]; 113 % of control (dose: 50.0 mg/kg/injection, schedule: Q01DX009 (ip), vehicle: saline); 100 % of control (dose: 66.0 mg/kg/injection, schedule: Q04DX003 (ip), vehicle: saline); 118 % of control under setting [11]; 109 % of control (dose: 150.0 mg/kg/injection, schedule: Q04DX003 (ip), vehicle: saline).
For `CC(=O)c1c(C)cc2cc(O)cc(OC3OC(CO)C(O)C(O)C3O)c2c1O` (centres undefined), the T/C was 96 % of control (dose: 1.5 mg/kg/injection, schedule: Q01DX005 (ip), vehicle: saline + alcohol); 103 % of control (dose: 3.0 mg/kg/injection, schedule: Q01DX005 (ip), vehicle: saline + alcohol); 92 % of control (dose: 6.0 mg/kg/injection, schedule: Q01DX005 (ip), vehicle: saline + alcohol); 108 % of control and 94 % of control (dose: 12.0 mg/kg/injection, schedule: Q01DX005 (ip), vehicle: saline + alcohol); 100 % of control (dose: 24.0 mg/kg/injection, schedule: Q01DX005 (ip), vehicle: saline + alcohol); 99 % of control (dose: 48.0 mg/kg/injection, schedule: Q01DX005 (ip), vehicle: saline + alcohol).
Turning to `CCCCCC(CSCC)C(=O)/C=C/c1ccc(Cl)c(Cl)c1` (centres undefined), the T/C by setting is: (dose: 12.5 mg/kg/injection, schedule: Q01DX009 (ip), vehicle: distilled water + Tween-80) 101 % of control; (dose: 25.0 mg/kg/injection, schedule: Q01DX009 (ip), vehicle: distilled water + Tween-80) 105 % of control; (dose: 50.0 mg/kg/injection, schedule: Q01DX009 (ip), vehicle: distilled water + Tween-80) 103 % of control and 104 % of control; (dose: 100.0 mg/kg/injection, schedule: Q01DX009 (ip), vehicle: distilled water + Tween-80) 105 % of control and 109 % of control; (dose: 200.0 mg/kg/injection, schedule: Q01DX009 (ip), vehicle: distilled water + Tween-80) 120 % of control and 124 % of control; (dose: 400.0 mg/kg/injection, schedule: Q01DX009 (ip), vehicle: distilled water + Tween-80) 119 % of control.
Consider `COC(=O)c1ccc(N)c2c(N)ccc(C(=O)OC)c12`, for which the T/C under setting [12] was 98 % of control, the T/C under setting [13] was 114 % of control and the T/C under setting [14] is 97 % of control.
For the compound `CCOC(=O)NC(C)(C)CN(C(=O)OCC)C(C)(C)CO`, the T/C was 100 % of control (dose: 50.0 mg/kg/injection, schedule: Q04DX003 (ip), vehicle: saline); 109 % of control under setting [11]; 109 % of control (dose: 200.0 mg/kg/injection, schedule: Q04DX003 (ip), vehicle: saline).
`CC1(C)CCCC2(C)OC(=O)C=C12` (centres undefined): the T/C by setting is: (dose: 3.12 mg/kg/injection, schedule: Q01DX005 (ip), vehicle: distilled water + Tween-80) 105 % of control; (dose: 6.25 mg/kg/injection, schedule: Q01DX005 (ip), vehicle: distilled water + Tween-80) 104 % of control; (dose: 12.5 mg/kg/injection, schedule: Q01DX005 (ip), vehicle: distilled water + Tween-80) 94 % of control.
Regarding `Nc1ccccc1-n1nc2ccc3ccccc3c2n1`, the T/C runs as follows: (dose: 100.0 mg/kg/injection, schedule: Q04DX003 (ip), vehicle: saline with Tween-80) 100 % of control; (dose: 200.0 mg/kg/injection, schedule: Q04DX003 (ip), vehicle: saline with Tween-80) 95 % of control; (dose: 400.0 mg/kg/injection, schedule: Q04DX003 (ip), vehicle: saline with Tween-80) 95 % of control.
For the compound `CCc1ccc(N=Cc2ccc(OC(=O)c3ccc(OC)cc3)c(OC)c2)cc1`, the T/C was 96 % of control under setting [12], 94 % of control under setting [13] and 92 % of control under setting [14].
Regarding `COC1CCC(COS(=O)(=O)c2ccc(C)cc2)O1` (centres undefined), the T/C under setting [5] is 105 % of control; the T/C under setting [7] is 100 % of control; the T/C (dose: 200.0 mg/kg/injection, schedule: Q01DX009 (ip), vehicle: saline with Tween-80) is 103 % of control.
With `CCOC1N=C(c2ccccc2)c2cc(Cl)ccc2NC1=O` (centres undefined), the T/C reads like this: (dose: 50.0 mg/kg/injection, schedule: Q01DX009 (ip), vehicle: Klucel (hydroxypropylcellulose) (HPC)) 101 % of control; (dose: 100.0 mg/kg/injection, schedule: Q01DX009 (ip), vehicle: Klucel (hydroxypropylcellulose) (HPC)) 95 % of control; (dose: 200.0 mg/kg/injection, schedule: Q01DX009 (ip), vehicle: Klucel (hydroxypropylcellulose) (HPC)) 93 % of control.
With `CCC1(C)NN=C2C(=CC=C3NNC(C)(CC)N32)n2cccc21` (centres undefined), the T/C runs as follows: under setting [4], 102 % of control; under setting [6], 110 % of control; under setting [8], 119 % of control.
For `O=C1CS/C(=N\C(=O)Nc2cccc(C(F)(F)F)c2)N1`, the T/C is, setting by setting: under setting [9], 103 % of control; under setting [10], 94 % of control; under setting [5], 87 % of control.

For the origin of these results see PubChem BioAssay AID330 (DTP/NCI, 2004).
